Test system: PDC KRAS tumor spheroids with HUVEC/MSC, viability
Assay: Anticancer human tumor 349418-098-R-PDC patient-derived lung adenocarcinoma cell line growth inhibition [KRAS2]
Settings: for IC50: curve of first compound; for viability, T/C: stronger effect = lower value
In short: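 KRAS-mutant tumor cells were grown as spheroids with HUVEC endothelial cells and human MSCs as stroma. Targeted agents were tested alone and with KRAS pathway inhibitors. Doses started at or near clinical Cmax, or 10 microM, descending half-log.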

[1] = second compound 0.1 µM, first compound 0.000316 µM
[2] = second compound 0.1 µM, first compound 0.001 µM
[3] = second compound 0.1 µM, first compound 0.00316 µM
[4] = second compound 0.1 µM, first compound 0.01 µM
[5] = second compound 0.1 µM, first compound 0.0316 µM
[6] = second compound 0.316 µM, first compound 0.000316 µM
[7] = second compound 0.316 µM, first compound 0.001 µM
[8] = second compound 0.316 µM, first compound 0.00316 µM
[9] = second compound 0.316 µM, first compound 0.01 µM
[10] = second compound 0.316 µM, first compound 0.0316 µM
[11] = second compound 1 µM, first compound 0.000316 µM
[12] = second compound 1 µM, first compound 0.001 µM
[13] = second compound 1 µM, first compound 0.00316 µM
[14] = second compound 1 µM, first compound 0.01 µM
[15] = second compound 1 µM, first compound 0.0316 µM
[16] = second compound 3.16 µM, first compound 0.000316 µM
[17] = second compound 3.16 µM, first compound 0.001 µM
[18] = second compound 3.16 µM, first compound 0.00316 µM
[19] = second compound 3.16 µM, first compound 0.01 µM
[20] = second compound 3.16 µM, first compound 0.0316 µM
[21] = second compound 10 µM, first compound 0.000316 µM
[22] = second compound 10 µM, first compound 0.001 µM
[23] = second compound 10 µM, first compound 0.00316 µM
[24] = second compound 10 µM, first compound 0.01 µM
[25] = second compound 10 µM, first compound 0.0316 µM
[26] = second compound 0.1 µM, first compound 0.1 µM
[27] = second compound 0.316 µM, first compound 0.1 µM
[28] = second compound 1 µM, first compound 0.1 µM
[29] = second compound 3.16 µM, first compound 0.1 µM
[30] = second compound 10 µM, first compound 0.1 µM
[31] = second compound 0.1 µM, first compound 0.316 µM
[32] = second compound 0.1 µM, first compound 1 µM
[33] = second compound 0.1 µM, first compound 3.16 µM
[34] = second compound 0.1 µM, first compound 10 µM
[35] = second compound 0.316 µM, first compound 0.316 µM
[36] = second compound 0.316 µM, first compound 1 µM
[37] = second compound 0.316 µM, first compound 3.16 µM
[38] = second compound 0.316 µM, first compound 10 µM
[39] = second compound 1 µM, first compound 0.316 µM
[40] = second compound 1 µM, first compound 1 µM
[41] = second compound 1 µM, first compound 3.16 µM
[42] = second compound 1 µM, first compound 10 µM
[43] = second compound 3.16 µM, first compound 0.316 µM
[44] = second compound 3.16 µM, first compound 1 µM
[45] = second compound 3.16 µM, first compound 3.16 µM
[46] = second compound 3.16 µM, first compound 10 µM
[47] = second compound 10 µM, first compound 0.316 µM
[48] = second compound 10 µM, first compound 1 µM
[49] = second compound 10 µM, first compound 3.16 µM
[50] = second compound 10 µM, first compound 10 µM
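Note: spheroids exposed to compounds for seven days before readout.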

CC(=O)Nc1cccc(-n2c(=O)n(C3CC3)c(=O)c3c(Nc4ccc(I)cc4F)n(C)c(=O)c(C)c32)c1 + CNCc1ccccc1-c1csc(C(C)Nc2nc(C)nc3cc(OC)c(OC)cc23)c1
IC50 (second compound 0.1 µM): < 0.1 nM | IC50 (second compound 0.316 µM): < 0.1 nM | IC50 (second compound 1 µM): < 0.1 nM | IC50 (second compound 3.16 µM): < 0.1 nM | IC50 (second compound 10 µM): < 0.1 nM | viability, T/C (second compound 0.1 µM, first compound 0.0001 µM): 21.2% | viability, T/C [1]: 12.7% | viability, T/C [2]: 10.5% | viability, T/C [3]: 9.99% | viability, T/C [4]: 8.08% | viability, T/C [5]: 5.08% | viability, T/C (second compound 0.316 µM, first compound 0.0001 µM): 20.8% | viability, T/C [6]: 12.2% | viability, T/C [7]: 9.67% | viability, T/C [8]: 7.39% | viability, T/C [9]: 7.29% | viability, T/C [10]: 5.28% | viability, T/C (second compound 1 µM, first compound 0.0001 µM): 17% | viability, T/C [11]: 8.66% | viability, T/C [12]: 7.27% | viability, T/C [13]: 5.84% | viability, T/C [14]: 5.69% | viability, T/C [15]: 4.51% | viability, T/C (second compound 3.16 µM, first compound 0.0001 µM): 0.05% | viability, T/C [16]: 0.03% | viability, T/C [17]: 0.02% | viability, T/C [18]: 0.02% | viability, T/C [19]: 0.1% | viability, T/C [20]: 0.08% | viability, T/C (second compound 10 µM, first compound 0.0001 µM): 0.13% | viability, T/C [21]: 0.08% | viability, T/C [22]: 0.07% | viability, T/C [23]: 0.07% | viability, T/C [24]: 0.08% | viability, T/C [25]: 0.13%

CN(C)C/C=C/C(=O)Nc1cc2c(Nc3ccc(F)c(Cl)c3)ncnc2cc1O[C@H]1CCOC1 + CNCc1ccccc1-c1csc(C(C)Nc2nc(C)nc3cc(OC)c(OC)cc23)c1
IC50 (second compound 0.1 µM): > 100 nM | IC50 (second compound 0.316 µM): > 100 nM | IC50 (second compound 1 µM): > 100 nM | IC50 (second compound 3.16 µM): < 0.316 nM | IC50 (second compound 10 µM): < 0.316 nM | viability, T/C [1]: 105% | viability, T/C [2]: 108% | viability, T/C [3]: 102% | viability, T/C [4]: 97% | viability, T/C [5]: 108% | viability, T/C [26]: 91.5% | viability, T/C [6]: 98.2% | viability, T/C [7]: 103% | viability, T/C [8]: 103% | viability, T/C [9]: 99.9% | viability, T/C [10]: 97.8% | viability, T/C [27]: 91.2% | viability, T/C [11]: 107% | viability, T/C [12]: 104% | viability, T/C [13]: 87.7% | viability, T/C [14]: 94.2% | viability, T/C [15]: 84.9% | viability, T/C [28]: 95.4% | viability, T/C [16]: 0.27% | viability, T/C [17]: 0.17% | viability, T/C [18]: 0.19% | viability, T/C [19]: 0.41% | viability, T/C [20]: 0.63% | viability, T/C [29]: 0.26% | viability, T/C [21]: 0.08% | viability, T/C [22]: 0.07% | viability, T/C [23]: 0.07% | viability, T/C [24]: 0.08% | viability, T/C [25]: 0.08% | viability, T/C [30]: 0.13%

COC(=O)c1ccc2c(C(=Nc3ccc(N(C)C(=O)CN4CCN(C)CC4)cc3)c3ccccc3)c(O)[nH]c2c1 + CNCc1ccccc1-c1csc(C(C)Nc2nc(C)nc3cc(OC)c(OC)cc23)c1
IC50 (second compound 0.1 µM): 445 nM | IC50 (second compound 0.316 µM): 270 nM | IC50 (second compound 1 µM): 53.6 nM | IC50 (second compound 3.16 µM): < 31.6 nM | IC50 (second compound 10 µM): < 31.6 nM | viability, T/C [5]: 84.1% | viability, T/C [26]: 96.6% | viability, T/C [31]: 55.8% | viability, T/C [32]: 29.8% | viability, T/C [33]: 12.4% | viability, T/C [34]: 12.9% | viability, T/C [10]: 75.3% | viability, T/C [27]: 84.9% | viability, T/C [35]: 42.5% | viability, T/C [36]: 25.7% | viability, T/C [37]: 6.84% | viability, T/C [38]: 13% | viability, T/C [15]: 56.5% | viability, T/C [28]: 41.4% | viability, T/C [39]: 27.6% | viability, T/C [40]: 10.6% | viability, T/C [41]: 1.75% | viability, T/C [42]: 1.57% | viability, T/C [20]: 0.32% | viability, T/C [29]: 0.25% | viability, T/C [43]: 0.19% | viability, T/C [44]: 0.06% | viability, T/C [45]: 0.13% | viability, T/C [46]: 0.15% | viability, T/C [25]: 0.09% | viability, T/C [30]: 0.07% | viability, T/C [47]: 0.06% | viability, T/C [48]: 0.06% | viability, T/C [49]: 0.05% | viability, T/C [50]: 0.09%

O=C(c1cc(Cc2n[nH]c(=O)c3ccccc23)ccc1F)N1CCN(C(=O)C2CC2)CC1 + CNCc1ccccc1-c1csc(C(C)Nc2nc(C)nc3cc(OC)c(OC)cc23)c1
IC50 (second compound 0.1 µM): 4090 nM | IC50 (second compound 0.316 µM): 2900 nM | IC50 (second compound 1 µM): 2530 nM | IC50 (second compound 3.16 µM): < 31.6 nM | IC50 (second compound 10 µM): < 31.6 nM | viability, T/C [5]: 101% | viability, T/C [26]: 99.5% | viability, T/C [31]: 83% | viability, T/C [32]: 71% | viability, T/C [33]: 58.1% | viability, T/C [34]: 31.4% | viability, T/C [10]: 107% | viability, T/C [27]: 101% | viability, T/C [35]: 78.5% | viability, T/C [36]: 69.7% | viability, T/C [37]: 48.4% | viability, T/C [38]: 29% | viability, T/C [15]: 99.5% | viability, T/C [28]: 77.8% | viability, T/C [39]: 75.3% | viability, T/C [40]: 69.6% | viability, T/C [41]: 45.3% | viability, T/C [42]: 27.8% | viability, T/C [20]: 0.19% | viability, T/C [29]: 0.21% | viability, T/C [43]: 0.12% | viability, T/C [44]: 0.11% | viability, T/C [45]: 0.1% | viability, T/C [46]: 0.11% | viability, T/C [25]: 0.08% | viability, T/C [30]: 0.08% | viability, T/C [47]: 0.08% | viability, T/C [48]: 0.07% | viability, T/C [49]: 0.07% | viability, T/C [50]: 0.17%

Reference: PubChem BioAssay AID1963866 (Molecular Pharmacology Branch, DTP, NCI, 2024)
